Among the data in PubChem BioAssay AID1963983 (Molecular Pharmacology Branch, DTP, NCI, 2024) are IC50 and viability, T/C values, retold here.

Values joined by “and” are separate entries in the source; they are usually repeats but may differ in a detail not shown here. Equal entries are not always repeated. Bounds are passed on as bounds.

This assay deals with 186277-243-T-J2-PDC multi-cell spheroid viability. Briefly: Anticancer human tumor 186277-243-T-J2-PDC patient-derived colon adenocarcinoma cell line growth inhibition [PI3K]. The conditions noted are these: for viability, T/C: stronger effect = lower value. The method, boiled down:
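Spheroid viability read-out. Co-cultures contained the tumor line plus HUVEC and human MSCs. Each agent was paired with a PI3K inhibitor (inavolisib, alpelisib, duvelisib, copanlisib) across half-log dilutions starting at clinical Cmax, or at 10 microM when Cmax was unknown.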

The mark [1] stands for this setting: curve of first compound, second compound 0.0316 µM.
Where [2] appears, read: curve of first compound, second compound 0.1 µM.
The mark [3] stands for this setting: curve of first compound, second compound 0.316 µM.
Setting [4] is: curve of first compound, second compound 1 µM.
Setting [5] is: second compound 0.0316 µM, first compound 0.0316 µM.
The mark [6] stands for this setting: second compound 0.0316 µM, first compound 0.1 µM.
[7] abbreviates: second compound 0.1 µM, first compound 0.0316 µM.
Where [8] appears, read: second compound 0.1 µM, first compound 0.1 µM.
Setting [9] is: second compound 0.316 µM, first compound 0.0316 µM.
The mark [10] stands for this setting: second compound 0.316 µM, first compound 0.1 µM.
Where [11] appears, read: second compound 1 µM, first compound 0.0316 µM.
Where [12] appears, read: second compound 1 µM, first compound 0.1 µM.
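Further: spheroids exposed to compounds for seven days before viability reading.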
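Wherever viability, T/C is given: 100% = DMSO vehicle control viability.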

As a reminder, the IC50 is the point on the concentration scale where inhibition reaches its midpoint. By viability, T/C is commonly meant the result in the treated group divided by that in the control group, in per cent. In the case of `CC(C)NCC(C(=O)N1CCN(c2ncnc3c2C(C)CC3O)CC1)c1ccc(Cl)cc1` (centres undefined) + COc1c(OCCCN2CCOCC2)ccc2c3n(c(=NC(=O)c4cnc(N)nc4)nc12)CCN3, the IC50 is, setting by setting: (curve of first compound, second compound 0.00316 µM) 919 nM; (curve of first compound, second compound 0.01 µM) 551 nM; under setting [1], 178 nM; under setting [2], < 31.6 nM; under setting [3], < 31.6 nM; under setting [4], < 31.6 nM. The viability, T/C is, setting by setting: (second compound 0.00316 µM, first compound 0.0316 µM) 93.9%; (second compound 0.00316 µM, first compound 0.1 µM) 86.5%; (second compound 0.00316 µM, first compound 0.316 µM) 73.1%; (second compound 0.00316 µM, first compound 1 µM) 46.9%; (second compound 0.00316 µM, first compound 3.16 µM) 30.9%; (second compound 0.00316 µM, first compound 10 µM) 20.5%. For the same compound, the viability, T/C is 102% (second compound 0.01 µM, first compound 0.0316 µM); 93.2% (second compound 0.01 µM, first compound 0.1 µM); 68.8% (second compound 0.01 µM, first compound 0.316 µM); 29.2% (second compound 0.01 µM, first compound 1 µM); 20.6% (second compound 0.01 µM, first compound 3.16 µM); 12.2% (second compound 0.01 µM, first compound 10 µM). In addition, the viability, T/C under setting [5] is 69.4%; the viability, T/C under setting [6] is 62.7%; the viability, T/C (second compound 0.0316 µM, first compound 0.316 µM) was 37.1%; the viability, T/C (second compound 0.0316 µM, first compound 1 µM) was 23.2%; the viability, T/C (second compound 0.0316 µM, first compound 3.16 µM) is 15.2%; the viability, T/C (second compound 0.0316 µM, first compound 10 µM) is 10.8%. Also, the viability, T/C under setting [7] was 21.8%; the viability, T/C under setting [8] is 16.4%; the viability, T/C (second compound 0.1 µM, first compound 0.316 µM) is 11%; the viability, T/C (second compound 0.1 µM, first compound 1 µM) was 7.77%; the viability, T/C (second compound 0.1 µM, first compound 3.16 µM) was 7.84%; the viability, T/C (second compound 0.1 µM, first compound 10 µM) is 5.5%. For the same compound, the viability, T/C under setting [9] is 5.04%; the viability, T/C under setting [10] was 3.98%; the viability, T/C (second compound 0.316 µM, first compound 0.316 µM) was 5.15%; the viability, T/C (second compound 0.316 µM, first compound 1 µM) is 10.1%; the viability, T/C (second compound 0.316 µM, first compound 3.16 µM) was 6.04%; the viability, T/C (second compound 0.316 µM, first compound 10 µM) is 8.76%. For the same compound, the viability, T/C was 1.65% under setting [11]; 3.37% under setting [12]; 1.85% (second compound 1 µM, first compound 0.316 µM); 2.98% (second compound 1 µM, first compound 1 µM); 2.47% (second compound 1 µM, first compound 3.16 µM); 2.26% (second compound 1 µM, first compound 10 µM).

Take `CC(C)n1nc(-c2ccc3oc(N)nc3c2)c2c(N)ncnc21` + Cc1nc(NC(=O)N2CCCC2C(N)=O)sc1-c1ccnc(C(C)(C)C(F)(F)F)c1: the IC50 is, setting by setting: under setting [1], 53.1 nM; under setting [2], 52.6 nM; under setting [3], 38 nM; under setting [4], 24.5 nM; (curve of first compound, second compound 3.16 µM) 2.04 nM; (curve of first compound, second compound 10 µM) < 0.316 nM. Besides, the viability, T/C is, setting by setting: (second compound 0.0316 µM, first compound 0.000316 µM) 106%; (second compound 0.0316 µM, first compound 0.001 µM) 90.3%; (second compound 0.0316 µM, first compound 0.00316 µM) 101%; (second compound 0.0316 µM, first compound 0.01 µM) 101%; under setting [5], 73.5%; under setting [6], 21.5%. The viability, T/C is, setting by setting: (second compound 0.1 µM, first compound 0.000316 µM) 101%; (second compound 0.1 µM, first compound 0.001 µM) 107%; (second compound 0.1 µM, first compound 0.00316 µM) 99.1%; (second compound 0.1 µM, first compound 0.01 µM) 87.1%; under setting [7], 72.1%; under setting [8], 24.1%. Also, the viability, T/C by setting is: (second compound 0.316 µM, first compound 0.000316 µM) 114%; (second compound 0.316 µM, first compound 0.001 µM) 107%; (second compound 0.316 µM, first compound 0.00316 µM) 79.9%; (second compound 0.316 µM, first compound 0.01 µM) 82.4%; under setting [9], 63.7%; under setting [10], 14.7%. Also, the viability, T/C (second compound 1 µM, first compound 0.000316 µM) was 113%; the viability, T/C (second compound 1 µM, first compound 0.001 µM) is 97.5%; the viability, T/C (second compound 1 µM, first compound 0.00316 µM) was 87.7%; the viability, T/C (second compound 1 µM, first compound 0.01 µM) is 76.8%; the viability, T/C under setting [11] is 41%; the viability, T/C under setting [12] is 6.83%. Moreover, the viability, T/C reads like this: (second compound 3.16 µM, first compound 0.000316 µM) 62.1%; (second compound 3.16 µM, first compound 0.001 µM) 56.8%; (second compound 3.16 µM, first compound 0.00316 µM) 46.2%; (second compound 3.16 µM, first compound 0.01 µM) 29%; (second compound 3.16 µM, first compound 0.0316 µM) 14.5%; (second compound 3.16 µM, first compound 0.1 µM) 3.88%. Moreover, the viability, T/C runs as follows: (second compound 10 µM, first compound 0.000316 µM) 17.3%; (second compound 10 µM, first compound 0.001 µM) 16.8%; (second compound 10 µM, first compound 0.00316 µM) 10.8%; (second compound 10 µM, first compound 0.01 µM) 13.1%; (second compound 10 µM, first compound 0.0316 µM) 6.47%; (second compound 10 µM, first compound 0.1 µM) 2.92%.

As to `Cn1cnc2c(F)c(Nc3ccc(Br)cc3Cl)c(C(=O)NOCCO)cc21`, the viability, T/C is 97.9% [middle of 4 runs] (compound 0.00949 µM); 87.4% [middle of 4 runs] (compound 0.03 µM); 61.9% [middle of 4 runs] (compound 0.0949 µM); 38% and 43.4% (2×) and 37.6% (compound 0.3 µM); 22.7% [middle of 4 runs] (compound 0.949 µM); 9.95% [middle of 4 runs] (compound 3 µM). For the setting “curve of compound”, the IC50 was 193 nM [middle of 4 runs].

As to `Cn1ncnc1[C@H]1c2n[nH]c(=O)c3cc(F)cc(c23)N[C@@H]1c1ccc(F)cc1`, the viability, T/C by setting is: (compound 0.000316 µM) 97.7% [middle of 4 runs]; (compound 0.001 µM) 94.7% [middle of 4 runs]; (compound 0.00316 µM) 97.8% [middle of 4 runs]; (compound 0.01 µM) 93% [middle of 4 runs]; (compound 0.1 µM) 93.6% [middle of 4 runs]. Further, the IC50 (curve of compound) is > 100 nM.

Take `C=CC(=O)N1CCN(c2nc(=O)n(-c3c(C)ccnc3C(C)C)c3nc(-c4c(O)cccc4F)c(F)cc23)C(C)C1` (centres undefined): the viability, T/C is 98.1% [middle of 4 runs] (compound 0.0316 µM); 92.8% [middle of 4 runs] (compound 0.1 µM); 98% [middle of 4 runs] (compound 0.316 µM); 102% [middle of 4 runs] (compound 1 µM); 108% [middle of 4 runs] (compound 3.16 µM); 90.6% [middle of 4 runs] (compound 10 µM). Further, under “curve of compound”, the IC50 was > 10000 nM.
